Experimental data reported in patent US7759313B2, “Induction method for cell differentiation” (Obschetstvo S Ogranichennoi Otvetstvennostiyu …, priority 2002, dated 2010).
Where two headings read alike, the source gives them in different places.

Assays:
inoculated B-16 melanoma = assay: Distribution of tumor cells by cell cycle phases (DNA content); type: in vivo, mice; conditions: 0.5 mg/kg intragastrically daily for 10 days
Experimental: Tests were done on inoculated B-16 melanoma. The effect of Dicarbamine on the distribution of tumor cells was studied on the basis of DNA content at different times following administration of the preparation. From day 6 after the tumor inoculation mice for 10 days were daily intragastrically given with 0.5 mg/kg Dicarbamine. Animals were sacrificed with subsequent investigation of tumor material at days 10, 12, 16 and 18 after inoculation, i.e. days 5 and 7 respectively after Dicarbamine administration as well as in 2 and 4 days after termination of Dicarbamine 10-day dosing.

[1] = Peripheral blood leukocytes formula under Cyclophosphamide; type: in vivo, mice; conditions: mouse, in vivo
Text: Two groups of mice are used.

M-6 melanoma = assay: Morphologic parameters of M-6 melanoma in nude mice (light microscopy); type: in vivo, mouse (mouse (mouse (mouse (mouse (mouse (mouse (mouse (mouse (mouse (mouse (mouse (human melanoma xenograft) melanoma xenograft) melanoma xenograft) melanoma xenograft) melanoma xenograft) melanoma xenograft) melanoma xenograft) melanoma xenograft) melanoma xenograft) melanoma xenograft) melanoma xenograft) melanoma xenograft)
Experimental: The study was conducted on 10-12 week old thymus free (nude) female Balb/C mice weighing 20-22 grams (breeding of the Russian Cancer Research Center (RCRC) named after N. N. Blokhin of the Russian Academy of Medical Sciences (RAMS)). A human melanoma strain earlier obtained from primary clinical material was taken from the bank of tumor strains of the RCRC of the RAMS for transplantation to thymus free “nude” mice. Tumor was disintegrated by Versen solution with vital Trypan blue staining and inoculated subcutaneously to mice in the amount of 1.6 million cells per mouse.
Dicarbamine was administered to mice intragastrically using a metal probe daily at dose 1.0 mg/kg beginning 4 days before the tumor inoculation and thereafter for 10-11 days (administration course up to 15 days). The mice were sacrificed with ether anesthesia in 12, 24 and 48 hours after the last administration.
Four morphologic parameters, such as the number of cells with pigment and the number of cells with apoptosis signs (capability to differentiate), the number of mitoses (proliferation activity), and necrosis area, were determined to monitor the degree of differentiation and proliferation of M-6 melanoma cells in the groups of control animals and in the Dicarbamine groups. These parameters were determined dynamically and correlated with general morphologic picture of a tumor growth as an integral sign. For this purpose, the tumors were removed from the mice, placed into formalin, and histologically processed for light microscopy.

[2] = test system: murine B-16 melanoma cells; assay: IRCP of B-16 cells, peptide derivatives at 100 μM; type: cell-based
Experimental: The study was conducted on a continuous cell culture of murine B-16 melanoma growing in the form of a monolayer in a tissue culture. α-Interferon, selected as a preparation of comparison, was administered at concentration 70 IU/ml.
The tested compounds were transferred into stock solution (1,000 μM), sterilized through filers with 0.22 μm pore diameter and then diluted down to a concentration of 100 μM.
The effect of compounds on cells was assessed on the basis of initial rate of cell proliferation (IRCP). This index was determined by numbering the number of cells in micro colonies during the first days following affection in “test” (with preparations) and “control” (without preparations) dishes, by analyzing 50 colonies in each of them.
Calculations of cell numbers in micro colonies were done for every “point”. Toxicity was judged by B-16 melanoma cell survival, which was determined by the ratio between numbers of the grown colonies in “test” and “control” dishes.

[3] = 1.0 mg/kg daily, 12 hours since withdrawal
[4] = 1.0 mg/kg daily, 24 hours since withdrawal
[5] = 1.0 mg/kg daily, 48 hours since withdrawal

## O=C(O)CCCC(=O)NCCc1c[nH]cn1 [Dicarbamine]
Inoculated B-16 melanoma
  increase in the portion of IIG^2 cells: 12-14%
  increase of the portion of interphase tumor cells (IIG^1): ≈ 25%
  portion of proliferating cells (constant): ≈ 30%
[1]
  Myelocytes: 0 in mm^3
M-6 melanoma; [3]
  Apoptosis: 0.1–0.2%
  Cells with pigment: 2–3%
  Mitoses: 3–5%
M-6 melanoma; [4]
  Apoptosis: 0.2–0.3%
  Cells with pigment: 2–4%
  Mitoses: 3–5%
  Necrosis area: 7–9%
M-6 melanoma; [5]
  Apoptosis: 0.2–0.3%
  Cells with pigment: 3–5%
  Mitoses: 3–5%
  Necrosis area: 8–10%
M-6 melanoma; 1.0 mg/kg intragastrically daily up to 15 days, 12 hours since withdrawal
  Necrosis area: 6–7%
[2]; 48 hours
  Initial rate of cell proliferation (% cells/colony relative to the control): 30.8 ± 2.8%
[2]; 72 hours
  Initial rate of cell proliferation (% cells/colony relative to the control): 28.2 ± 2.2%
100 + 15 mg/kg
  Terms of death: no
100 + 15 mg/kg, day 0
  Total leukocyte number: 11.50 ± 2.80 thousand in mm^3
100 + 15 mg/kg, day 3
  Total leukocyte number: 4.04 ± 0.44 thousand in mm^3
100 + 15 mg/kg, day 5
  Total leukocyte number: 10.40 ± 1.59 thousand in mm^3
100 + 15 mg/kg, day 7
  Total leukocyte number: 14.80 ± 1.76 thousand in mm^3
100 + 15 mg/kg, day 21
  Total leukocyte number: 11.80 ± 1.34 thousand in mm^3
200 + 30 mg/kg
  Terms of death: 10
200 + 30 mg/kg, day 3
  Total leukocyte number: 3.10 ± 0.70 thousand in mm^3
200 + 30 mg/kg, day 5
  Total leukocyte number: 12.80 ± 1.37 thousand in mm^3
200 + 30 mg/kg, day 7
  Total leukocyte number: 15.30 ± 1.26 thousand in mm^3
200 + 30 mg/kg, day 21
  Total leukocyte number: 12.30 ± 0.89 thousand in mm^3
Cytostatic doses 200 + 30 mg/kg (Dicarbamine group: 0.5 mg/kg daily 20 days), day 0
  Total leukocyte number: 11.50 ± 2.80 thousand in mm^3
